Measurements: ChEMBL document CHEMBL3430912, “GSK Tres Cantos Anti-Kinetoplastid Screening (TCAKS) Data”
pIC50: −log10 of the molar value.

Key:
[1] = tested on: Trypanosoma cruzi; assay: GSK_TCAKS: pIC50 Trypanosoma cruzi viability assay using beta-GAL activity. This assay was run at single shot at 5uM compound concentration per well. The biological reagents consisted of NIH-3T3 host cells and trypomastigotes parasitic cells; both cell types were set to a 3.3 * 10^5 cells/mL dilution in assay DMEM by means of a CASY cell counter device using a 60um capillary. 6 uL of the mixture were dispensed per well (about 1 * 10^3 host-cells and 1 * 10^3 parasites) with a Multidrop Combi dispenser. […] In all wells, the percentage of DMSO never exceeded 0.5%. Plates incubated for four days at 37C, 5% CO2. The substrate used for the assay fluorescence intensity (FLINT) readout was resorufin-beta-D-galactopiranoside (Sigma-Aldrich) at 5uM per well. It was diluted in PBS supplemented with the soft detergent Igepal (Fluka).; type: functional, organism-based, Mus musculus; conditions: Tulahuen, NIH3T3
[2] = tested on: Trypanosoma cruzi; assay: (§1) GSK_TCAKS: pIC50 Trypanosoma cruzi Imaging: Infected Cells. […] Cells were then washed once with PBS before infection. T. cruzi trypomastigotes, collected at days 5 to 8 after infection from LLC-MK2 parasite infected cultures, were allowed to swim out for 4h at 37C from a centrifuged pellet (2,500 rpm/10 min/room temperature). Trypomastigotes were then collected and counted in a CASY Cell Counter. Trypomastigotes, in supplemented DMEM, were added to H9c2 cultures in a multiplicity of infection of 1 and incubated for 18 h. Cells were washed once with PBS before incubation of the infected H9c2 monolayer with trypsin (Life-Technologies) to detach cells from the flask. Cells were counted in a CASY Cell Counter using a 150 um capillary and their density set at 5 * 10^4 cells per mL in supplemented assay DMEM. Infected H9c2 were dispensed into 384-well poly-lysine coated assay plates at 50uL per well using a Multidrop Combi dispenser. After seeding them, the plates were incubated at 37C, 5% CO2 for 72h. Cultures were then fixed and stained by addition of 50 uL of a solution containing 8% formaldehyde and 4 uM DRAQ5 DNA dye (BioStatus, UK) per well. […] Five images were collected per well for reliable statistical analysis. Automated image analysis was performed with a script developed on Acapella High Content Imaging and Analysis Software (PerkinElmer). Output: percentage of infected cells per well as a second infection marker.; type: functional, organism-based, Rattus norvegicus; conditions: H9c2, 4 h
[3] = tested on: Trypanosoma cruzi; assay: GSK_TCAKS: pIC50 Trypanosoma cruzi Imaging: Amastigotes/Cell. […] Cells were then washed once with PBS before infection. T. cruzi trypomastigotes, collected at days 5 to 8 after infection from LLC-MK2 parasite infected cultures, were allowed to swim out for 4h at 37C from a centrifuged pellet (2,500 rpm/10 min/room temperature). Trypomastigotes were then collected and counted in a CASY Cell Counter. Trypomastigotes, in supplemented DMEM, were added to H9c2 cultures in a multiplicity of infection of 1 and incubated for 18 h. Cells were washed once with PBS before incubation of the infected H9c2 monolayer with trypsin (Life-Technologies) to detach cells from the flask. Cells were counted in a CASY Cell Counter using a 150 um capillary and their density set at 5 * 10^4 cells per mL in supplemented assay DMEM. Infected H9c2 were dispensed into 384-well poly-lysine coated assay plates at 50uL per well using a Multidrop Combi dispenser. After seeding them, the plates were incubated at 37C, 5% CO2 for 72h. Cultures were then fixed and stained by addition of 50 uL of a solution containing 8% formaldehyde and 4 uM DRAQ5 DNA dye (BioStatus, UK) per well. […] Five images were collected per well for reliable statistical analysis. Automated image analysis was performed with a script developed on Acapella High Content Imaging and Analysis Software (PerkinElmer). Output: number of amastigotes per cell as infection level measurement.; type: functional, organism-based, Rattus norvegicus; conditions: H9c2, 4 h
[4] = tested on: Trypanosoma cruzi; assay: as §1, with “H2C9” for “Trypanosoma cruzi”, “H9c2 Host Cardiomyocytes.” for “Infected Cells.”, “Number” for “percentage”, “H9c2 Host Cardiomyocytes nuclei to determine drug-related cytotoxicity.” for “infected cells per well as a second infection marker.”; type: functional, organism-based, Rattus norvegicus; conditions: H9c2, 4 h
[5] = tested on: Leishmania donovani; assay: GSK_TCAKS: pIC50 Leishmania donovani viability assay using fluorescence intensity. Assay plates (1536-well) were prepared by adding 30nL per well of compound. For single shot assay, the final compound concentration was 5uM. […] Briefly, eGFP LdBOB axenic amastigotes were harvested, fixed and counted in a CASY cell counter (Roche-Applied Science). A final concentration of 1.5 * 10^5 cells per well were prepared in amastigote media containing 500 U/mL penicillin/streptomycin (Invitrogen) and 6uL was dispensed to each experimental well using a Multidrop Combi dispenser (Thermo Scientific). 6uL of assay media was dispensed to control columns used as reference for 100% compound response. Following incubation for 72 h at 37C, 5% CO2, 2 uL of resazurin was added to each well at a final concentration of 0.5 mM in phosphate buffered saline (PBS) with IGEPAL (Sigma-Aldrich), 0.05% (v/v).; type: functional, organism-based
[6] = tested on: Leishmania donovani; assay: GSK_TCAKS: pIC50 Leishmania donovani Imaging: Infected Macrophages. Assay plates (384-well) were prepared by adding 250nL of compound to each well. For single shot assay, the final compound concentration was 5 uM. […] Automated image analysis was performed with a script developed on Acapella High Content Imaging and Analysis Software (PerkinElmer). Output: Percent of infected macrophage cells were reported for each well.; type: functional, organism-based, Homo sapiens; conditions: THP-1
[7] = tested on: Leishmania donovani; assay: GSK_TCAKS: pIC50 Leishmania donovani Imaging: Amastigotes/Macrophages. Assay plates (384-well) were prepared by adding 250nL of compound to each well. For single shot assay, the final compound concentration was 5 uM. […] Automated image analysis was performed with a script developed on Acapella High Content Imaging and Analysis Software (PerkinElmer). Output: Average number of amastigotes per macrophage cell were reported for each well.; type: functional, organism-based, Homo sapiens; conditions: THP-1
[8] = tested on: Leishmania donovani; assay: GSK_TCAKS: pIC50 Leishmania donovani Imaging: THP-1 Host Macrophages. Assay plates (384-well) were prepared by adding 250nL of compound to each well. For single shot assay, the final compound concentration was 5 uM. […] Automated image analysis was performed with a script developed on Acapella High Content Imaging and Analysis Software (PerkinElmer). Output: THP-1 cell count were reported for each well.; type: functional, organism-based, Homo sapiens
[9] = tested on: Trypanosoma brucei brucei; assay: GSK_TCAKS: pIC50 Trypanosoma brucei viability assay using fluorescence intensity. Assay plates (1536-well) were prepared by dispensing 25nL of compound solution per well using an Echo acoustic dispenser (Labcyte).; type: functional, organism-based; conditions: Lister 427, 2 h
[10] = tested on: Trypanosoma brucei brucei; assay: GSK_TCAKS: pIC50 Trypanosoma brucei viability assay using luminiscence. Assay plates (1536-well) were prepared. T. brucei cultures were harvested and counted in a CASY cell counter. A parasite suspension was prepared at a final concentration of 5 * 10^4 cells/mL in complete HMI9 medium and 6uL was dispensed to all wells containing compounds using a Multidrop Combi dispenser. 6uL of HMI9 media with 0.4% DMSO were dispensed to control columns. Plates were incubated for 24 h at 37C, 5% CO2 then tempered for 10 min at room temperature. ATP content was quantified by adding 4 uL of CellTiter-Glo Reagent (Promega) according to the manufacturer's instructions. Luminescence was measured using a ViewLux.; type: functional, organism-based; conditions: Lister 427, CASY
[11] = GSK_TCAKS: pIC50 HepG2 human cell line viability assay using luminiscence. […] Seeding density was checked to ensure that new mono-layers were not more than 50% confluent at the time of harvesting. Cell suspension was added to 500 mL of the same medium at a final density of 1.2 * 10^5 cells/mL. This cell suspension was dispensed (25 uL, 3000 cells per well) into 384-well clear-bottom plates using a Multidrop Combi dispenser. Prior to addition of the cell suspension, the screening compounds (250 nL) were pre-dispensed into the plates with an Echo liquid handler. Plates were incubated for 48 h at 37C, 5% CO2. After incubation, plates equilibrated at room temperature for 30 min before proceeding to develop the luminescent signal. The signal developer, CellTiter-Glo Reagent, was allowed to equilibrate at room temperature for 30 min and added to the plates (25uL per well) using a Multidrop Combi dispenser. Plates were left for 10 min at room temperature for stabilization and then read using a ViewLux.; type: toxicity, cell-based
[12] = target: Sterol 14-alpha demethylase (Trypanosoma cruzi (strain CL Brener), UniProt Q7Z1V1); assay: GSK_TCAKS: pIC50 CYP51 from Trypanosoma cruzi.; type: functional
Chain of Sterol 14-alpha demethylase (Q7Z1V1 whole entry): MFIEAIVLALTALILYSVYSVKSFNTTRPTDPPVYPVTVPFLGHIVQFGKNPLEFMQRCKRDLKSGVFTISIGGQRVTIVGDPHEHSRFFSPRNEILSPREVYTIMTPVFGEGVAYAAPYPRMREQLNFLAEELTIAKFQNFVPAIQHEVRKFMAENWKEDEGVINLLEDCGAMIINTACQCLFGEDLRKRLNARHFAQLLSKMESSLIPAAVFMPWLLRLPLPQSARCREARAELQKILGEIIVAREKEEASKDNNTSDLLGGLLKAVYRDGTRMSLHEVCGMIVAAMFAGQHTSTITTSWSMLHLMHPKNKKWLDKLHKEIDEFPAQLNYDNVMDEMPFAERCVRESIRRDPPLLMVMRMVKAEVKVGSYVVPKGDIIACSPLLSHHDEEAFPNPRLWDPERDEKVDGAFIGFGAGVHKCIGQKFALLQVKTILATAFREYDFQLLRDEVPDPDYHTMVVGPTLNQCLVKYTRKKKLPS

SMILES | pIC50 [1] | pIC50 [2] | pIC50 [3] | pIC50 [4] | pIC50 [5] | pIC50 [6] | pIC50 [7] | pIC50 [8] | pIC50 [9] | pIC50 [10] | IC50 at 48 h [11] [µM] | pIC50 [12]
NCc1csc(Nc2cc(Oc3ccccc3)ncn2)n1 | 4.50 | 4.60 | 4.50 | < 4.30 | < 4.30 | 4.60 | 4.60 | < 4.30 | 6.20 | 6.10 | > 100 | 6.50
O=C(c1ccc(O)c(Cl)c1)N1CCN(c2cnccn2)CC1 | < 4.30 | < 4.30 | 5.00 | < 4.30 | 6.50 | 5.30 | 5.50 | < 4.30 | < 4.40 | < 4.40 | > 100 | < 4.00
O=C1CN(Cc2ccco2)C2CS(=O)(=O)CC2N1c1ccc(Cl)cc1 (configuration not stated) | < 4.30 | < 4.30 | < 4.30 | < 4.30 | < 4.30 | < 4.30 | < 4.30 | < 4.30 | 6.50 | 6.60 | > 100 | < 4.00
Cc1nc(-c2ccncc2)ncc1C(C)NC(=O)c1ccc(Cl)s1 (configuration not stated) | 4.60 | 4.50 | 4.70 | < 4.30 | < 4.30 | < 4.30 | < 4.30 | < 4.30 | 6.00 | 6.00 | > 100 | 6.10
Cn1nc(C(=O)N2CCc3ccccc32)c2c1CCS(=O)(=O)C2 | 5.10 | 4.90 | 5.10 | < 4.30 | 5.40 | 5.40 | 5.80 | < 4.30 | 5.40 | 5.20 | > 100 | < 4.00
CCc1nn(-c2ncc(F)c(NC(C)C)n2)c(N)c1C1CCCCC1 | 5.45 | 5.50 | 5.80 | 6.00 | 5.50 | 5.50 | 5.80 | 4.80 | 5.00 | 4.80 | 31.6 | < 4.00
C[C@@H](Oc1cc(-n2cnc3cc(N)ccc32)sc1C(N)=O)c1ccccc1Cl | 5.90 | 4.70 | 5.30 | 6.00 | 5.50 | 4.50 | 4.70 | 4.60 | 6.60 | 6.10 | 20 | 5.50
O=C(NCc1nnc2n1CCCCC2)c1csc(-c2ccccc2)n1 | 5.60 | 5.70 | 5.70 | < 4.30 | < 4.30 | < 4.30 | < 4.30 | < 4.30 | 6.50 | 6.40 | > 100 | < 4.00
Cc1nc2c(-c3nc(-c4ccccc4N)n[nH]3)cccn2c1C | 5.35 | 5.60 | 5.80 | 5.30 | 5.20 | 5.80 | 6.00 | 5.10 | 6.00 | 5.60 | 15.8 | 5.50
Cc1nc2c(-c3nc(-c4ccc(N)cc4)n[nH]3)cccn2c1C | 5.20 | < 4.30 | < 4.30 | 5.00 | 5.50 | 5.70 | 5.80 | 4.90 | 4.90 | 4.60 | 15.8 | < 4.00
OC[C@@H](Nc1nccc(-c2c(-c3ccc(F)cc3)ncn2C2CCNCC2)n1)c1ccccc1 | 4.50 | 4.90 | 4.90 | 5.70 | < 4.30 | 4.50 | 4.50 | 4.50 | 6.40 | 6.20 | 100 | 4.60
